Patent US20190119200A1, “TERTIARY AMIDES AND METHOD OF USE” (AbbVie Inc., priority 2016, published 2019)

Columns and labels:
[1] = system: UUO mice (kidney fibrosis); test: Mouse unilateral ureteral obstruction (UUO) kidney fibrosis model; format: in vivo; conditions: male CD-1 mice, 30 mg/kg po twice daily D-1 to D6, compared to vehicle treated UUO group
Protocol: All animal handling and experimental protocols were approved by AbbVie's Institutional Animal Care and Use Committee (IACUC) and were conducted in accordance with the ethical principles for pain-related animal research of the American Pain Society. Male CD-1 mice (28-30 g, Charles River) were group housed 10 per cage, housed in a temperature controlled room with a 12/12-hour day/night cycle, with food (2018 Tekland Global 18% protein rodent diet, Harlan®) and water available ad libitum. Mice underwent either complete unilateral ureter obstruction (UUO) or sham surgery to the left kidney. Briefly, animals were anesthetized with isoflurane, and the left ureter was visualized via a flank incision. Using 6-0 silk sutures, the ureter was tied off at two points near the renal pelvis and then completely cut between ligations (ligation step omitted for sham operated animals). The abdominal muscle was sutured and the skin closed using standard wound clips. Test compound or vehicle was delivered twice daily (30 mg/kg, po) via oral gavage, starting on the day before surgery (D-1) and continuing through day 6 after surgery (D6), at which time animals were sacrificed and kidney tissues collected. […] Statistical significance was determined by using a one-way analysis of variance (ANOVA) followed by a Bonferroni post-hoc test and was conducted using GraphPad prism.

LPAR1 [2] = biological target: T1, LPAR1 (Homo sapiens, UniProt Q92633); test: LPAR1 FLIPR Assay; format: cell-based; conditions: U2OS cells stably expressing LPAR1, LPA (EC80), Calcium 6 FLIPR dye; for Emax: read-out: Maximum Inhibition
T1 construct: host or cells: U2OS
T1 sequence (Q92633 whole entry): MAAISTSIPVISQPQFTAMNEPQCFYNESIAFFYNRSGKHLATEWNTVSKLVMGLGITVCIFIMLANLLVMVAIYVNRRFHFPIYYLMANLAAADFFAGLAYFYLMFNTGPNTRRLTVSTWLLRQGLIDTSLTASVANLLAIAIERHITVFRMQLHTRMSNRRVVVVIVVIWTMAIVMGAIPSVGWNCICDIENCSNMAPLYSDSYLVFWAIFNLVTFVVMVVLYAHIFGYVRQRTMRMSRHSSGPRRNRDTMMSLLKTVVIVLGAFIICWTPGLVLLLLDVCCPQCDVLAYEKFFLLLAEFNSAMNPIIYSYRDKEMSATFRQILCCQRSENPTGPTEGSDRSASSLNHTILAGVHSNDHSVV
Summary of the method: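 Calcium flux read-out (515-575 nm, FLIPR) in LPAR1-expressing U2OS cells after LPA challenge at EC80, given 3 min after compound addition; cells carried Calcium 6 dye loaded 2 h at 37° C. Eleven-point 3-fold dilutions were fitted with a four-parameter Hill equation for IC50.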

LPAR1 [3] = biological target: T1, LPAR1; test: IP-One HTRF Assay; format: cell-based; conditions: U2OS cells stably expressing LPAR1, LPA stimulation, IP-One Tb HTRF kit; for Emax: read-out: Maximum Inhibition
Summary of the method: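 U2OS cells stably expressing LPAR1 were preincubated with compound (11-point 3-fold series from 2 mM DMSO stock) for 20 min at 37 °C, then stimulated with LPA for 2 h at 37 °C. IP1 accumulation was read by IP-One HTRF (665/615 nm ratio). IC50 came from four-parameter logistic Hill fits.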

`COc1cc(OC)cc(C(=O)N(CCCCC(=O)O)CCCc2ccccc2)c1` [Example 7, 5-[(3,5-dimethoxybenzoyl)(3-phenylpropyl)amino]pentanoic Acid] was tested, and the “reduction in Col1a1 expression” value [1] was −46%, the “reduction in tubulointerstitial fibrosis as measured by PSR” value [1] was −53% and the IC50 (LPAR1 [2]) was 0.032 µM. It also gave an Emax (LPAR1 [2]) of 82%, an IC50 (LPAR1 [3]) of 1.75 µM and an Emax (LPAR1 [3]) of 75%.

Compound `COc1cc(C(=O)N(CCCc2ccccc2)CCSCC(=O)O)cc(OC)c1C` [Example 44, ({2-[(3,5-dimethoxy-4-methylbenzoyl)(3-phenylpropyl)amino]ethyl}sulfanyl)acetic Acid] has an IC50 (LPAR1 [2]) of 0.008 µM, an Emax (LPAR1 [2]) of 96% and an IC50 (LPAR1 [3]) of 0.223 µM. For the same compound, the Emax (LPAR1 [3]) was 80%.

In the case of `COc1cc(C(=O)N(CCCc2ccccc2)CCOCP(=O)(O)O)cc(OC)c1C` [Example 50, ({2-[(3,5-dimethoxy-4-methylbenzoyl)(3-phenylpropyl)amino]ethoxy}methyl)phosphonic Acid], the IC50 (LPAR1 [2]) is reported as 0.003 µM, the Emax (LPAR1 [2]) is reported as 101% and the IC50 (LPAR1 [3]) is reported as 0.003 µM. The Emax (LPAR1 [3]) was 85%.

`COc1cc(C(=O)N(CCCc2ccccc2)CCCC(C)(C)C(=O)O)cc(OC)c1C` [Example 57, 5-[(3,5-dimethoxy-4-methylbenzoyl)(3-phenylpropyl)amino]-2,2-dimethylpentanoic Acid] showed an IC50 (LPAR1 [2]) of 0.035 µM, an Emax (LPAR1 [2]) of 100% and an IC50 (LPAR1 [3]) of 0.062 µM. It also gave an Emax (LPAR1 [3]) of 95%.

With `COc1cc(C(=O)N(CCCc2ccccc2)CCSCCC(=O)O)cc(OC)c1C` [Example 60, 3-({2-[(3,5-dimethoxy-4-methylbenzoyl)(3-phenylpropyl)amino]ethyl}sulfanyl)propanoic Acid] the IC50 (LPAR1 [2]) was 0.02 µM, the Emax (LPAR1 [2]) was 95% and the IC50 (LPAR1 [3]) was 0.208 µM. For the same compound, the Emax (LPAR1 [3]) was 82%.

`COc1cc(C(=O)N(CCCc2ccccc2)CCSC(C)CC(=O)O)cc(OC)c1C` (centres unmarked) [Example 62, 3-({2-[(3,5-dimethoxy-4-methylbenzoyl)(3-phenylpropyl)amino]ethyl}sulfanyl)butanoic Acid] gave an IC50 (LPAR1 [2]) of 0.029 µM, an Emax (LPAR1 [2]) of 97% and an IC50 (LPAR1 [3]) of 0.291 µM. The Emax (LPAR1 [3]) was 75%.

For `COc1cc(OC)cc(C(=O)N(CCCCC(=O)O)CCCc2cccc(Cl)c2)c1` [Example 91, 5-{[3-(3-chlorophenyl)propyl](3,5-dimethoxybenzoyl)amino}pentanoic Acid], the IC50 (LPAR1 [2]) was 0.025 µM, the Emax (LPAR1 [2]) was 89% and the IC50 (LPAR1 [3]) was 0.285 µM. The Emax (LPAR1 [3]) was 70%.

Compound `COc1cc(C(=O)N(CCCc2cccc(Cl)c2)CCOCC(=O)O)cc(OC)c1C` [Example 109, (2-{[3-(3-chlorophenyl)propyl](3,5-dimethoxy-4-methylbenzoyl)amino}ethoxy)acetic Acid] has an IC50 (LPAR1 [2]) of 0.015 µM, an Emax (LPAR1 [2]) of 93% and an IC50 (LPAR1 [3]) of 0.809 µM. The Emax (LPAR1 [3]) was 85%.

`COc1cc(C(=O)N(CCCc2ccccc2F)CCOCC(=O)O)cc(OC)c1C` [Example 110, (2-{(3,5-dimethoxy-4-methylbenzoyl)[3-(2-fluorophenyl)propyl]amino}ethoxy)acetic Acid] showed an IC50 (LPAR1 [2]) of 0.016 µM, an Emax (LPAR1 [2]) of 90% and an IC50 (LPAR1 [3]) of 0.902 µM. It also gave an Emax (LPAR1 [3]) of 82%.

`COc1cc(C(=O)N(CCCCC(=O)NS(C)(=O)=O)CCCc2ccccc2)cc(OC)c1C` [Example 111, N-{5-[(methanesulfonyl)amino]-5-oxopentyl}-3,5-dimethoxy-4-methyl-N-(3-phenylpropyl)benzamide] gave an IC50 (LPAR1 [2]) of 0.028 µM, an Emax (LPAR1 [2]) of 95% and an IC50 (LPAR1 [3]) of 0.57 µM. The Emax (LPAR1 [3]) was 80%.

`COc1ccc(C2(C(=O)N(CCCc3ccccc3)CCSCC(=O)O)CC2)cc1` [Example 115, [(2-{[1-(4-methoxyphenyl)cyclopropane-1-carbonyl](3-phenylpropyl)amino}ethyl)sulfanyl]acetic Acid] showed an IC50 (LPAR1 [2]) of 0.03 µM, an Emax (LPAR1 [2]) of 78% and an IC50 (LPAR1 [3]) of 2.91 µM. The Emax (LPAR1 [3]) was 71%.

With `COc1cc(C(=O)N(CCCc2ccccc2F)CCSCC(=O)O)cc(OC)c1C` [Example 116, [(2-{(3,5-dimethoxy-4-methylbenzoyl)[3-(2-fluorophenyl)propyl]amino}ethyl)sulfanyl]acetic Acid] the IC50 (LPAR1 [2]) was 0.02 µM, the Emax (LPAR1 [2]) was 88% and the IC50 (LPAR1 [3]) was 0.344 µM. It also gave an Emax (LPAR1 [3]) of 81%.

In the case of `COc1cc(C(=O)N(CCCc2cccc(F)c2)CCSCC(=O)O)cc(OC)c1C` [Example 117, [(2-{(3,5-dimethoxy-4-methylbenzoyl)[3-(3-fluorophenyl)propyl]amino}ethyl)sulfanyl]acetic Acid], the IC50 (LPAR1 [2]) is reported as 0.01 µM, the Emax (LPAR1 [2]) is reported as 93% and the IC50 (LPAR1 [3]) is reported as 0.473 µM. For the same compound, the Emax (LPAR1 [3]) was 85%.

For `COc1cc(C(=O)N(CCCc2cccc(Cl)c2)CCSCC(=O)O)cc(OC)c1C` [Example 122, [(2-{[3-(3-chlorophenyl)propyl](3,5-dimethoxy-4-methylbenzoyl)amino}ethyl)sulfanyl]acetic Acid], the IC50 (LPAR1 [2]) was 0.01 µM, the Emax (LPAR1 [2]) was 95% and the IC50 (LPAR1 [3]) was 0.134 µM. The Emax (LPAR1 [3]) was 78%.

In the case of `COc1cc(C(=O)N(CCCc2cccc(F)c2)CCOCC(=O)O)cc(OC)c1C` [Example 129, (2-{(3,5-dimethoxy-4-methylbenzoyl)[3-(3-fluorophenyl)propyl]amino}ethoxy)acetic Acid], the IC50 (LPAR1 [2]) is reported as 0.02 µM, the Emax (LPAR1 [2]) is reported as 93% and the IC50 (LPAR1 [3]) is reported as 1.31 µM. The Emax (LPAR1 [3]) was 96%.

`COc1cc(C(=O)N(CCCc2ccccc2Cl)CCOCC(=O)O)cc(OC)c1C` [Example 131, (2-{[3-(2-chlorophenyl)propyl](3,5-dimethoxy-4-methylbenzoyl)amino}ethoxy)acetic Acid] was tested, and the IC50 (LPAR1 [2]) was 0.021 µM, the Emax (LPAR1 [2]) was 86% and the IC50 (LPAR1 [3]) was 1.48 µM. For the same compound, the Emax (LPAR1 [3]) was 101%.

For `COc1cc(C(=O)N(CCCc2ccc(C)o2)CCSCC(=O)O)cc(OC)c1C` [Example 132, [(2-{(3,5-dimethoxy-4-methylbenzoyl)[3-(5-methylfuran-2-yl)propyl]amino}ethyl)sulfanyl]acetic Acid], the IC50 (LPAR1 [2]) was 0.01 µM, the Emax (LPAR1 [2]) was 86% and the IC50 (LPAR1 [3]) was 0.22 µM. It also gave an Emax (LPAR1 [3]) of 80%.

`COc1cc(C(=O)N(CCCc2ccccc2)CCCC(C)(O)C(=O)O)cc(OC)c1C` (centres unmarked) [Example 155, 5-[(3,5-dimethoxy-4-methylbenzoyl)(3-phenylpropyl)amino]-2-hydroxy-2-methylpentanoic Acid] was tested, and the IC50 (LPAR1 [2]) was 0.027 µM, the Emax (LPAR1 [2]) was 90% and the IC50 (LPAR1 [3]) was 0.663 µM. For the same compound, the Emax (LPAR1 [3]) was 83%.

In the case of `COc1cc(C(=O)N(CCCc2ccccc2)CCOCC(=O)NS(C)(=O)=O)cc(OC)c1C` [Example 157, N-(2-{2-[(methanesulfonyl)amino]-2-oxoethoxy}ethyl)-3,5-dimethoxy-4-methyl-N-(3-phenylpropyl)benzamide], the IC50 (LPAR1 [2]) is reported as 0.016 µM, the Emax (LPAR1 [2]) is reported as 92% and the IC50 (LPAR1 [3]) is reported as 0.92 µM. It also gave an Emax (LPAR1 [3]) of 75%.

Compound `COc1cc(C(=O)N(CCCCC(=O)O)CCCc2ccco2)cc(OC)c1C` [Example 173, 5-{(3,5-dimethoxy-4-methylbenzoyl)[3-(furan-2-yl)propyl]amino}pentanoic Acid] has an IC50 (LPAR1 [2]) of 0.029 µM, an Emax (LPAR1 [2]) of 74% and an IC50 (LPAR1 [3]) of 0.523 µM. For the same compound, the Emax (LPAR1 [3]) was 75%.

`COc1cc(C(=O)N(CCCCC(=O)O)CCCc2ccc(Cl)o2)cc(OC)c1C` [Example 185, 5-{[3-(5-chlorofuran-2-yl)propyl](3,5-dimethoxy-4-methylbenzoyl)amino}pentanoic Acid] gave an IC50 (LPAR1 [2]) of 0.013 µM, an Emax (LPAR1 [2]) of 91% and an IC50 (LPAR1 [3]) of 0.325 µM. The Emax (LPAR1 [3]) was 73%.
